From patent publication US9630956B2, “Compounds useful as inhibitors of ATR kinase” (Vertex Pharmaceuticals Incorporated, priority 2010, dated 2017)

How the values were obtained:
full-length ATR = full-length ATR (Homo sapiens (Human), UniProt Q13535); assay: ATR Inhibition Assay (radioactive-phosphate incorporation); type: biochemical; settings: ATR Inhibition Ki(app); 10 μM ATP, 800 μM target peptide, 5 nM full-length ATR, 25° C.
Protocol: Compounds were screened for their ability to inhibit ATR kinase using a radioactive-phosphate incorporation assay. Assays were carried out in a mixture of 50 mM Tris/HCl (pH 7.5), 10 mM MgCl2 and 1 mM DTT. Final substrate concentrations were 10 μM [γ-33P]ATP (3 mCi 33P ATP/mmol ATP, Perkin Elmer) and 800 μM target peptide ([…]).
Assays were carried out at 25° C. in the presence of 5 nM full-length ATR. An assay stock buffer solution was prepared containing all of the reagents listed above, with the exception of ATP and the test compound of interest. 13.5 μL of the stock solution was placed in a 96 well plate followed by addition of 2 μL of DMSO stock containing serial dilutions of the test compound (typically starting from a final concentration of 15 μM with 3-fold serial dilutions) in duplicate (final DMSO concentration 7%). The plate was pre-incubated for 10 minutes at 25° C. and the reaction initiated by addition of 15 μL [γ-33P]ATP (final concentration 10 μM).
The reaction was stopped after 24 hours by the addition of 30 μL 0.1 M phosphoric acid containing 2 mM ATP. A multiscreen phosphocellulose filter 96-well plate (Millipore, Cat no. MAPHNOB50) was pretreated with 100 μL 0.2M phosphoric acid prior to the addition of 45 μL of the stopped assay mixture. The plate was washed with 5×200 μL 0.2M phosphoric acid. After drying, 100 μL Optiphase ‘SuperMix’ liquid scintillation cocktail (Perkin Elmer) was added to the well prior to scintillation counting (1450 Microbeta Liquid Scintillation Counter, Wallac).
After removing mean background values for all of the data points, Ki(app) data were calculated from non-linear regression analysis of the initial rate data using the Prism software package (GraphPad Prism version 3.0cx for Macintosh, GraphPad Software, San Diego Calif., USA).
Below is a chart showing the ATR Inhibition Ki values of compounds of the disclosure.

[1] = system: HCT116 colorectal cancer cells; assay: Cisplatin Sensitization Assay (96h cell viability MTS); type: cell-based; settings: concentration of compound required to reduce the IC50 of Cisplatin alone by at least 3-fold, 96h MTS
Protocol: Compounds can be screened for their ability to sensitize HCT116 colorectal cancer cells to Cisplatin using a 96h cell viability (MTS) assay. […] Compounds and Cisplatin are then both added simultaneously to the cell media in 2-fold serial dilutions from a top final concentration of 10 μM as a full matrix of concentrations in a final cell volume of 200 μl, and the cells are then incubated at 37° C. in 5% CO2. After 96h, 40 μl of […] (Promega G358a) is added to each well and the cells are incubated for 1 h at 37° C. in 5% CO2.

Sequence of full-length ATR (Q13535 whole entry): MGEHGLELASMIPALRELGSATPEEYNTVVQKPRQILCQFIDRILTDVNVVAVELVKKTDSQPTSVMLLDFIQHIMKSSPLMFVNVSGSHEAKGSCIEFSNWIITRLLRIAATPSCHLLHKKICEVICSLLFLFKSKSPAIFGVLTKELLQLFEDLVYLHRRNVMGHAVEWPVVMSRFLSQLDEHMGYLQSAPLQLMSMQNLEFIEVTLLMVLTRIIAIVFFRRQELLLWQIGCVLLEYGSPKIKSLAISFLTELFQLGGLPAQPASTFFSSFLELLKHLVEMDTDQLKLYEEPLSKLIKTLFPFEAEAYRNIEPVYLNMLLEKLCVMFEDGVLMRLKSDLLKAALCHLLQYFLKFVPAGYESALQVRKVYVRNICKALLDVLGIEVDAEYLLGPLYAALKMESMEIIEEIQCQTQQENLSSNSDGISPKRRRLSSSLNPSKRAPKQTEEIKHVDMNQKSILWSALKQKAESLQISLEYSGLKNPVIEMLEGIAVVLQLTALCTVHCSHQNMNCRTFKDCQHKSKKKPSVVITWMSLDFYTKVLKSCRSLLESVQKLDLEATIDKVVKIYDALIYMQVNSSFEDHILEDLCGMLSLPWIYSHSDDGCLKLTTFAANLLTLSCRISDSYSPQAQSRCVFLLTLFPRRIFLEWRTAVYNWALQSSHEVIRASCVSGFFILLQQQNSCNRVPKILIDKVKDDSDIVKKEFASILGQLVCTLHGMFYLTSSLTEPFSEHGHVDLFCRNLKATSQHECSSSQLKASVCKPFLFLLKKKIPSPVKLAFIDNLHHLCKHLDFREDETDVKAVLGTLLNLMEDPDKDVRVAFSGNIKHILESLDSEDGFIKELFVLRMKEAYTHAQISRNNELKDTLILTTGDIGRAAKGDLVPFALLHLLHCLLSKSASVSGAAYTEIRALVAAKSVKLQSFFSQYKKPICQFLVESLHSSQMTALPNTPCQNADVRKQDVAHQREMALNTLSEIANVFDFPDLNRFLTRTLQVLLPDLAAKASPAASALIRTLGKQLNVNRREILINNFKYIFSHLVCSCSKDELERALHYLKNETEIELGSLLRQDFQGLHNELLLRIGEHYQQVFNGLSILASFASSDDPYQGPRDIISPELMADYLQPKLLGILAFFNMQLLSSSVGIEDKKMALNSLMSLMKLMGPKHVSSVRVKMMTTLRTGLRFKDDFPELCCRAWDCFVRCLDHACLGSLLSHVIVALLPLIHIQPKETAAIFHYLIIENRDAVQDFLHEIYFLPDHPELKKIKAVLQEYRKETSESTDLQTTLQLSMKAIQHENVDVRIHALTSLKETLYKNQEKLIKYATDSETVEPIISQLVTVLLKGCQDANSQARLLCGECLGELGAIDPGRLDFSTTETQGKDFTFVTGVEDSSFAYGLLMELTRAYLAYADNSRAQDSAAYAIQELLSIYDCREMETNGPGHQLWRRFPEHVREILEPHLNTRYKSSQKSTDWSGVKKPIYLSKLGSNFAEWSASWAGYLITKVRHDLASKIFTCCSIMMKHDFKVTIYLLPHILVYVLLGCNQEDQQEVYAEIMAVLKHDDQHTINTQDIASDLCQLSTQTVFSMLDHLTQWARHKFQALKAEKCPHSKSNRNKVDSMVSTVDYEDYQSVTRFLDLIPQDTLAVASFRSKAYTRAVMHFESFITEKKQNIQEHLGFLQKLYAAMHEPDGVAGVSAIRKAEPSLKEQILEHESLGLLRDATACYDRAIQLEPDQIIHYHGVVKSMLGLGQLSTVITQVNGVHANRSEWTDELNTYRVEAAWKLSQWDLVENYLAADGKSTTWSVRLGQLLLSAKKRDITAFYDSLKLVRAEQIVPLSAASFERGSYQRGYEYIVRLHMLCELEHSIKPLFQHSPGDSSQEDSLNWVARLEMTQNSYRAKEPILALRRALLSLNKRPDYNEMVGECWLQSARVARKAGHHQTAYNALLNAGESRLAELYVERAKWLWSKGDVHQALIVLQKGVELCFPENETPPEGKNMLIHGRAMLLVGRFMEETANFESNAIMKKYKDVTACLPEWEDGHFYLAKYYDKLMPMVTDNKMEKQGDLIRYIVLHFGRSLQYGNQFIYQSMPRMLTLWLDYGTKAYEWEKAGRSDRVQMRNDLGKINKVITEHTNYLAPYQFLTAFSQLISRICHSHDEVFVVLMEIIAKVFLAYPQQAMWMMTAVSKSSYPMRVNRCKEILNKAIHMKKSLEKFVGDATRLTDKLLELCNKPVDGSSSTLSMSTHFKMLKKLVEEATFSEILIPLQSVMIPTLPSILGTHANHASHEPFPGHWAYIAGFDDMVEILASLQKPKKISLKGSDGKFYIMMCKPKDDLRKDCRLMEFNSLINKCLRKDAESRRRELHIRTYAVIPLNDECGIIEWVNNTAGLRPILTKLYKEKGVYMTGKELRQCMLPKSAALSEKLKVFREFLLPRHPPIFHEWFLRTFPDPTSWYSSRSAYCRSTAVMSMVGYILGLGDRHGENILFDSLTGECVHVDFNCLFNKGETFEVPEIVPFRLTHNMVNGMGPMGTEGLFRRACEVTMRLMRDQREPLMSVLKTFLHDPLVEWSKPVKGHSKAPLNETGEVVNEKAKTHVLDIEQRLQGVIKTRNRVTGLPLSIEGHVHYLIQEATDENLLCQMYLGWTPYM

Compound	Ki (full-length ATR) [nM]	CP3 shift [1] [µM]
CNCc1ccc(-c2cc(-c3nc(-c4ccc(=O)n(CC5(CO)CC5)c4)cnc3N)on2)cc1 [Compound I-80]	≤ 5	0.078
CCn1cc(-c2cnc(N)c(-c3cc(-c4ccc(CNC)cc4)no3)n2)ccc1=O [Compound I-81]	≤ 5	0.156
CCC(C)n1cc(-c2cnc(N)c(-c3cc(-c4ccc(CNC)cc4)no3)n2)ccc1=O (stereo not drawn) [Compound I-82]	≤ 5	0.079
CCC(CC)n1cc(-c2cnc(N)c(-c3cc(-c4ccc(CNC)cc4)no3)n2)ccc1=O [Compound I-83]	≤ 5	0.02
CNCc1ccc(-c2cc(-c3nc(-c4ccc(=O)n(CC5CCCCO5)c4)cnc3N)on2)cc1 (stereo not drawn) [Compound I-87]	≤ 5	0.078
CCc1cc(-c2cnc(N)c(-c3cc(-c4ccc(CNC)cc4)no3)n2)c[nH]c1=O [Compound I-89]	≤ 5	0.312
CNCc1ccc(-c2cc(-c3nc(-c4c[nH]c(=O)c(Cl)c4)cnc3N)on2)cc1 [Compound I-90]	≤ 5	0.625
Nc1ncc(-c2ccc(=O)n(C3CCCC3)c2)nc1-c1cc(-c2ccc(CNC3CC3)cc2)no1 [Compound I-92]	≤ 5	0.078
CCC(CC)n1cc(-c2cnc(N)c(-c3cc(-c4ccc(CNC5CC5)cc4)no3)n2)ccc1=O [Compound I-93]	≤ 5	0.02
CCC(CC)n1cc(-c2cnc(N)c(-c3cc(-c4cccc(C(C)N)c4)no3)n2)ccc1=O (stereo not drawn) [Compound I-94]	≤ 5	0.007
CNCc1ccc(-c2cc(-c3nc(-c4ccc(=O)n(CCC5CC5)c4)cnc3N)on2)cc1 [Compound I-96]	≤ 5	0.078
CC[C@H](C)Cn1cc(-c2cnc(N)c(-c3cc(-c4ccc(CNC)cc4)no3)n2)ccc1=O [Compound I-97]	≤ 5	0.078
CNCc1ccc(-c2cc(-c3nc(-c4ccc(=O)n(C(C)C(=O)N5CCCC5)c4)cnc3N)on2)cc1 (stereo not drawn) [Compound I-102]	≤ 5	0.078
CC(N)c1cccc(-c2cc(-c3nc(-c4ccc(=O)n(CC5(C)CC5)c4)cnc3N)on2)c1 (stereo not drawn) [Compound I-105]	≤ 5	0.02
CC(N)c1cccc(-c2cc(-c3nc(-c4ccc(=O)n(CC5CC5C)c4)cnc3N)on2)c1 (stereo not drawn) [Compound I-106]	≤ 5	0.039
CNCc1ccc(-c2cc(-c3nc(-c4c[nH]c(=O)c(C5CCCC5)c4)cnc3N)on2)cc1 [Compound I-107]	≤ 5	0.039
CCCC(CC)c1cc(-c2cnc(N)c(-c3cc(-c4ccc(CNC)cc4)no3)n2)c[nH]c1=O (stereo not drawn) [Compound I-116]	≤ 5	0.02
Nc1ncc(-c2c[nH]c(=O)c(C3CCCC3)c2)nc1-c1cc(-c2ccc(CNC3CC3)cc2)no1 [Compound I-119]	≤ 5	0.156
CCCC(CC)c1cc(-c2cnc(N)c(-c3cc(-c4ccc(CNC5CC5)cc4)no3)n2)c[nH]c1=O (stereo not drawn) [Compound I-120]	≤ 5	0.078
CNCc1ccc(-c2cc(-c3nc(-c4ccc(=O)n(CCC5CCCC5)c4)cnc3N)on2)cc1 [Compound I-122]	≤ 5	0.078
CNCc1ccc(-c2cc(-c3nc(-c4c[nH]c(=O)c(-c5ccccc5)c4)cnc3N)on2)cc1 [Compound I-123]	≤ 5	0.078
CC1CCC(n2cc(-c3cnc(N)c(-c4cc(-c5cccc(C(C)N)c5)no4)n3)ccc2=O)C1 (stereo not drawn) [Compound I-124]	≤ 5	0.039
CNCc1ccc(-c2cc(-c3nc(-c4ccc(=O)n(C(C)(C)C#N)c4)cnc3N)on2)cc1 [Compound I-125]	≤ 5	0.015
CCC(CC)n1cc(-c2cnc(N)c(-c3cc(-c4ccc(CNCCF)cc4)no3)n2)ccc1=O [Compound I-126]	≤ 5	0.625
